Data as given in the NIST ThermoML archive (doi:10.1016/j.jct.2015.01.004).
Where “and” joins values, the source holds several entries; their conditions need not be identical. Equal values may be shown once. Numbers after ± are expanded uncertainties.

Test: molar heat capacity at constant pressure; xn = mol fraction of the nth substance listed
Conditions: 100 kPa

## [Si] [silicon] + [Li]
46.23 K, Crystal of intercomponent compound 2, relaxation calorimeter, x2 = 0.804
  molar heat capacity at constant pressure: 2.145 ± 0.087 J/K/mol and 2.142 ± 0.087 J/K/mol
48.69 K, Crystal of intercomponent compound 1, relaxation calorimetry, x2 = 0.81
  molar heat capacity at constant pressure: 2.259 ± 0.092 J/K/mol
48.7 K, Crystal of intercomponent compound 2, relaxation calorimeter, x2 = 0.804
  molar heat capacity at constant pressure: 2.429 ± 0.099 J/K/mol
48.72 K, Crystal of intercomponent compound 2, relaxation calorimeter, x2 = 0.804
  molar heat capacity at constant pressure: 2.429 ± 0.099 J/K/mol
50 K, Crystal of intercomponent compound 1, relaxation calorimetry + DSC, x2 = 0.81
  molar heat capacity at constant pressure: 2.41 ± 0.1 J/K/mol
50 K, Crystal of intercomponent compound 2, relaxation calorimetry + DSC, x2 = 0.804
  molar heat capacity at constant pressure: 2.61 ± 0.11 J/K/mol
51.29 K, Crystal of intercomponent compound 1, relaxation calorimetry, x2 = 0.81
  molar heat capacity at constant pressure: 2.56 ± 0.1 J/K/mol
51.3 K, Crystal of intercomponent compound 2, relaxation calorimeter, x2 = 0.804
  molar heat capacity at constant pressure: 2.74 ± 0.11 J/K/mol
54.03 K, Crystal of intercomponent compound 1, relaxation calorimetry, x2 = 0.81
  molar heat capacity at constant pressure: 2.89 ± 0.12 J/K/mol
54.03 K, Crystal of intercomponent compound 2, relaxation calorimeter, x2 = 0.804
  molar heat capacity at constant pressure: 3.08 ± 0.13 J/K/mol
54.04 K, Crystal of intercomponent compound 2, relaxation calorimeter, x2 = 0.804
  molar heat capacity at constant pressure: 3.08 ± 0.13 J/K/mol
56.91 K, Crystal of intercomponent compound 1, relaxation calorimetry, x2 = 0.81
  molar heat capacity at constant pressure: 3.26 ± 0.13 J/K/mol
56.92 K, Crystal of intercomponent compound 2, relaxation calorimeter, x2 = 0.804
  molar heat capacity at constant pressure: 3.45 ± 0.14 J/K/mol
59.95 K, Crystal of intercomponent compound 1, relaxation calorimetry, x2 = 0.81
  molar heat capacity at constant pressure: 3.65 ± 0.15 J/K/mol
59.96 K, Crystal of intercomponent compound 2, relaxation calorimeter, x2 = 0.804
  molar heat capacity at constant pressure: 3.84 ± 0.16 J/K/mol
60 K, Crystal of intercomponent compound 1, relaxation calorimetry + DSC, x2 = 0.81
  molar heat capacity at constant pressure: 3.63 ± 0.15 J/K/mol
60 K, Crystal of intercomponent compound 2, relaxation calorimetry + DSC, x2 = 0.804
  molar heat capacity at constant pressure: 3.81 ± 0.15 J/K/mol
63.15 K, Crystal of intercomponent compound 1, relaxation calorimetry, x2 = 0.81
  molar heat capacity at constant pressure: 4.08 ± 0.17 J/K/mol
63.17 K, Crystal of intercomponent compound 2, relaxation calorimeter, x2 = 0.804
  molar heat capacity at constant pressure: 4.27 ± 0.17 J/K/mol
63.18 K, Crystal of intercomponent compound 2, relaxation calorimeter, x2 = 0.804
  molar heat capacity at constant pressure: 4.27 ± 0.17 J/K/mol
66.53 K, Crystal of intercomponent compound 1, relaxation calorimetry, x2 = 0.81
  molar heat capacity at constant pressure: 4.52 ± 0.18 J/K/mol
66.54 K, Crystal of intercomponent compound 2, relaxation calorimeter, x2 = 0.804
  molar heat capacity at constant pressure: 4.72 ± 0.19 J/K/mol
66.55 K, Crystal of intercomponent compound 2, relaxation calorimeter, x2 = 0.804
  molar heat capacity at constant pressure: 4.73 ± 0.19 J/K/mol
70 K, Crystal of intercomponent compound 1, relaxation calorimetry + DSC, x2 = 0.81
  molar heat capacity at constant pressure: 5.02 ± 0.2 J/K/mol
70 K, Crystal of intercomponent compound 2, relaxation calorimetry + DSC, x2 = 0.804
  molar heat capacity at constant pressure: 5.21 ± 0.21 J/K/mol
70.08 K, Crystal of intercomponent compound 1, relaxation calorimetry, x2 = 0.81
  molar heat capacity at constant pressure: 5.02 ± 0.2 J/K/mol
70.1 K, Crystal of intercomponent compound 2, relaxation calorimeter, x2 = 0.804
  molar heat capacity at constant pressure: 5.22 ± 0.21 J/K/mol
70.11 K, Crystal of intercomponent compound 2, relaxation calorimeter, x2 = 0.804
  molar heat capacity at constant pressure: 5.22 ± 0.21 J/K/mol
73.83 K, Crystal of intercomponent compound 1, relaxation calorimetry, x2 = 0.81
  molar heat capacity at constant pressure: 5.54 ± 0.23 J/K/mol
73.84 K, Crystal of intercomponent compound 2, relaxation calorimeter, x2 = 0.804
  molar heat capacity at constant pressure: 5.75 ± 0.23 J/K/mol
73.86 K, Crystal of intercomponent compound 2, relaxation calorimeter, x2 = 0.804
  molar heat capacity at constant pressure: 5.75 ± 0.23 J/K/mol
77.77 K, Crystal of intercomponent compound 1, relaxation calorimetry, x2 = 0.81
  molar heat capacity at constant pressure: 6.09 ± 0.25 J/K/mol
77.78 K, Crystal of intercomponent compound 2, relaxation calorimeter, x2 = 0.804
  molar heat capacity at constant pressure: 6.31 ± 0.26 J/K/mol
77.8 K, Crystal of intercomponent compound 2, relaxation calorimeter, x2 = 0.804
  molar heat capacity at constant pressure: 6.32 ± 0.26 J/K/mol
80 K, Crystal of intercomponent compound 1, relaxation calorimetry + DSC, x2 = 0.81
  molar heat capacity at constant pressure: 6.43 ± 0.26 J/K/mol
80 K, Crystal of intercomponent compound 2, relaxation calorimetry + DSC, x2 = 0.804
  molar heat capacity at constant pressure: 6.65 ± 0.27 J/K/mol
81.93 K, Crystal of intercomponent compound 1, relaxation calorimetry, x2 = 0.81
  molar heat capacity at constant pressure: 6.66 ± 0.27 J/K/mol
81.94 K, Crystal of intercomponent compound 2, relaxation calorimeter, x2 = 0.804
  molar heat capacity at constant pressure: 6.9 ± 0.28 J/K/mol
81.95 K, Crystal of intercomponent compound 2, relaxation calorimeter, x2 = 0.804
  molar heat capacity at constant pressure: 6.9 ± 0.28 J/K/mol
86.31 K, Crystal of intercomponent compound 1, relaxation calorimetry, x2 = 0.81
  molar heat capacity at constant pressure: 7.27 ± 0.3 J/K/mol
86.32 K, Crystal of intercomponent compound 2, relaxation calorimeter, x2 = 0.804
  molar heat capacity at constant pressure: 7.53 ± 0.31 J/K/mol
86.33 K, Crystal of intercomponent compound 2, relaxation calorimeter, x2 = 0.804
  molar heat capacity at constant pressure: 7.53 ± 0.31 J/K/mol
90 K, Crystal of intercomponent compound 1, relaxation calorimetry + DSC, x2 = 0.81
  molar heat capacity at constant pressure: 7.82 ± 0.32 J/K/mol
90 K, Crystal of intercomponent compound 2, relaxation calorimetry + DSC, x2 = 0.804
  molar heat capacity at constant pressure: 8.08 ± 0.33 J/K/mol
90.93 K, Crystal of intercomponent compound 1, relaxation calorimetry, x2 = 0.81
  molar heat capacity at constant pressure: 7.89 ± 0.32 J/K/mol
90.93 K, Crystal of intercomponent compound 2, relaxation calorimeter, x2 = 0.804
  molar heat capacity at constant pressure: 8.14 ± 0.33 J/K/mol
90.95 K, Crystal of intercomponent compound 2, relaxation calorimeter, x2 = 0.804
  molar heat capacity at constant pressure: 8.17 ± 0.33 J/K/mol
91 K, Crystal of intercomponent compound 2, relaxation calorimeter, x2 = 0.804
  molar heat capacity at constant pressure: 8.16 ± 0.33 J/K/mol
91.01 K, Crystal of intercomponent compound 1, relaxation calorimetry, x2 = 0.81
  molar heat capacity at constant pressure: 7.88 ± 0.32 J/K/mol
91.02 K, Crystal of intercomponent compound 2, relaxation calorimeter, x2 = 0.804
  molar heat capacity at constant pressure: 8.18 ± 0.33 J/K/mol
95.01 K, Crystal of intercomponent compound 1, relaxation calorimetry, x2 = 0.81
  molar heat capacity at constant pressure: 8.41 ± 0.34 J/K/mol
95.02 K, Crystal of intercomponent compound 2, relaxation calorimeter, x2 = 0.804
  molar heat capacity at constant pressure: 8.71 ± 0.35 J/K/mol
95.04 K, Crystal of intercomponent compound 2, relaxation calorimeter, x2 = 0.804
  molar heat capacity at constant pressure: 8.73 ± 0.35 J/K/mol
99.06 K, Crystal of intercomponent compound 2, relaxation calorimeter, x2 = 0.804
  molar heat capacity at constant pressure: 9.29 ± 0.38 J/K/mol
99.07 K, Crystal of intercomponent compound 1, relaxation calorimetry, x2 = 0.81
  molar heat capacity at constant pressure: 8.94 ± 0.36 J/K/mol
99.08 K, Crystal of intercomponent compound 2, relaxation calorimeter, x2 = 0.804
  molar heat capacity at constant pressure: 9.32 ± 0.38 J/K/mol
100 K, Crystal of intercomponent compound 1, relaxation calorimetry + DSC, x2 = 0.81
  molar heat capacity at constant pressure: 9.14 ± 0.37 J/K/mol
100 K, Crystal of intercomponent compound 2, relaxation calorimetry + DSC, x2 = 0.804
  molar heat capacity at constant pressure: 9.44 ± 0.38 J/K/mol
103.16 K, Crystal of intercomponent compound 1, relaxation calorimetry, x2 = 0.81
  molar heat capacity at constant pressure: 9.52 ± 0.39 J/K/mol
103.16 K, Crystal of intercomponent compound 2, relaxation calorimeter, x2 = 0.804
  molar heat capacity at constant pressure: 9.83 ± 0.4 J/K/mol
103.18 K, Crystal of intercomponent compound 2, relaxation calorimeter, x2 = 0.804
  molar heat capacity at constant pressure: 9.87 ± 0.4 J/K/mol
107.24 K, Crystal of intercomponent compound 1, relaxation calorimetry, x2 = 0.81
  molar heat capacity at constant pressure: 10.04 ± 0.41 J/K/mol
107.25 K, Crystal of intercomponent compound 2, relaxation calorimeter, x2 = 0.804
  molar heat capacity at constant pressure: 10.37 ± 0.42 J/K/mol
107.26 K, Crystal of intercomponent compound 2, relaxation calorimeter, x2 = 0.804
  molar heat capacity at constant pressure: 10.4 ± 0.42 J/K/mol
110 K, Crystal of intercomponent compound 1, relaxation calorimetry + DSC, x2 = 0.81
  molar heat capacity at constant pressure: 10.39 ± 0.42 J/K/mol
110 K, Crystal of intercomponent compound 2, relaxation calorimetry + DSC, x2 = 0.804
  molar heat capacity at constant pressure: 10.73 ± 0.44 J/K/mol
111.29 K, Crystal of intercomponent compound 1, relaxation calorimetry, x2 = 0.81
  molar heat capacity at constant pressure: 10.53 ± 0.43 J/K/mol
111.29 K, Crystal of intercomponent compound 2, relaxation calorimeter, x2 = 0.804
  molar heat capacity at constant pressure: 10.88 ± 0.44 J/K/mol
111.31 K, Crystal of intercomponent compound 2, relaxation calorimeter, x2 = 0.804
  molar heat capacity at constant pressure: 10.88 ± 0.44 J/K/mol
115.39 K, Crystal of intercomponent compound 1, relaxation calorimetry, x2 = 0.81
  molar heat capacity at constant pressure: 11.05 ± 0.45 J/K/mol
115.4 K, Crystal of intercomponent compound 2, relaxation calorimeter, x2 = 0.804
  molar heat capacity at constant pressure: 11.39 ± 0.46 J/K/mol
115.41 K, Crystal of intercomponent compound 2, relaxation calorimeter, x2 = 0.804
  molar heat capacity at constant pressure: 11.41 ± 0.46 J/K/mol
119.47 K, Crystal of intercomponent compound 1, relaxation calorimetry, x2 = 0.81
  molar heat capacity at constant pressure: 11.55 ± 0.47 J/K/mol
119.47 K, Crystal of intercomponent compound 2, relaxation calorimeter, x2 = 0.804
  molar heat capacity at constant pressure: 11.87 ± 0.48 J/K/mol
119.49 K, Crystal of intercomponent compound 2, relaxation calorimeter, x2 = 0.804
  molar heat capacity at constant pressure: 11.92 ± 0.48 J/K/mol
120 K, Crystal of intercomponent compound 1, relaxation calorimetry + DSC, x2 = 0.81
  molar heat capacity at constant pressure: 11.56 ± 0.47 J/K/mol
120 K, Crystal of intercomponent compound 2, relaxation calorimetry + DSC, x2 = 0.804
  molar heat capacity at constant pressure: 11.93 ± 0.48 J/K/mol
123.51 K, Crystal of intercomponent compound 1, relaxation calorimetry, x2 = 0.81
  molar heat capacity at constant pressure: 12 ± 0.49 J/K/mol
123.51 K, Crystal of intercomponent compound 2, relaxation calorimeter, x2 = 0.804
  molar heat capacity at constant pressure: 12.35 ± 0.5 J/K/mol
123.53 K, Crystal of intercomponent compound 2, relaxation calorimeter, x2 = 0.804
  molar heat capacity at constant pressure: 12.4 ± 0.5 J/K/mol
127.61 K, Crystal of intercomponent compound 1, relaxation calorimetry, x2 = 0.81
  molar heat capacity at constant pressure: 12.47 ± 0.51 J/K/mol
